How the values were obtained:
RT of group M viruses = RT of group M viruses (HIV-1 M:B_HXB2R, UniProt P04585); conditions: nevirapine at 100 μM; 21 group M reference isolates of A through F subtypes; culture supernatants
Description: (§1) To measure the sensitivity of group M and group O viruses to nevirapine (Boehringer Mannheim), the Amp-RT assay as described herein was used to measure the enzymatic activity of RT of these viruses in the presence or absence of the drug. Ten microliters of culture supernatants were added to 40 μl of RT buffer containing 10 ng of RNA template, 10 units of Rnasin (Promega, Wis.), 0.06% NP-40, 100 ng of the antisense primer EMCR2 (SEQ ID NO:2), 0.8 mM EGTA, 2 mM dithiothreitol, 50 mM Tris-HCl, 10 mM MgCl2 and 200 μM of each dNTP with or without 100 μM of nevirapine. The reaction was incubated at 37° C. for one hour and heated at 95° C. for ten minutes. The products of the RT reaction were PCR amplified for 35 cycles at 95° C. for one minute, 55° C. for one minute and 72° C. for one minute after the addition of 50 μl of PCR buffer containing 2.5 units of Taq polymerase, 100 ng of sense primer EMCF1': 5'[…]3' (SEQ ID NO:10). Twenty microliters of the reaction product was electrophoresed in 1.8% agarose gels and Southern blot hybridized to ^32 P-end labeled internal probe EMCP1 (SEQ ID NO:3). For qualitative detection, blots were exposed on autoradiographic film for 12-16 hours. For quantitative detection, blots were exposed for 3-6 hours and their radioactivities were read and measured by a Phosphor Imager (Model # 400E, Molecular Dynamics, Inc., CA). […]

[1] = molecular target: T1, RT of group O reference isolate MVP5180 (Human immunodeficiency virus type 1 group O, UniProt Q79666); experiment: Amp-RT assay of RT activity of HIV-1 group O isolate with or without nevirapine; type: biochemical; conditions: nevirapine at 100 μM, culture supernatant
T1 construct: measure the enzymatic activity of RT of these viruses
Description: as §1

RT in group O sera = molecular target: T2, RT in group O sera (HIV-1 O_MVP5180, UniProt Q79666); experiment: Direct Amp-RT assay of sera from group O-infected persons with or without nevirapine; type: biochemical, HIV-1 group O; conditions: 10 group O-infected persons; unprocessed 2 μl serum samples
T2 construct: Amp-RT with EMCV RNA template
Description: (§2) Plasma samples from 55 HIV-1 infected persons, ten seroconversion panels and 100 uninfected controls were studied. Two micoliter volumes of unprocessed plasma were tested in duplicate by the Amp-RT protocol as described above. The viral load was determined from a standard curve generated by known numbers of recombinant HIV-1 RT molecules and was expressed as equivalents of recombinant RT (rRT) molecules/ml. For comparison, RNA virus loads were also determined by the NASBA commercial assay (Organon).
(§3) To measure the sensitivity of group M and group O viruses to nevirapine (Boehringer Mannheim), the Amp-RT assay as described herein was used to measure the enzymatic activity of RT of these viruses in the presence or absence of the drug. Ten microliters of culture supernatants were added to 40 μl of RT buffer containing 10 ng of RNA template, 10 units of Rnasin (Promega, Wis.), 0.06% NP-40, 100 ng of the antisense primer EMCR2 (SEQ ID NO:2), 0.8 mM EGTA, 2 mM dithiothreitol, 50 mM Tris-HCl, 10 mM MgCl2 and 200 μM of each dNTP with or without 100 μM of nevirapine. […] For quantitative detection, blots were exposed for 3-6 hours and their radioactivities were read and measured by a Phosphor Imager (Model # 400E, Molecular Dynamics, Inc., CA). […]
(§4) Applicability to serum screening was evaluated in 10 group O-infected and 10 group M-infected persons.

RT in group M sera = RT in group M sera (HIV-1 M:B_HXB2R, UniProt P04585); conditions: 10 group M-infected persons; unprocessed 2 μl serum samples
Description: as §2, §3, §4

For `Cc1ccnc2c1NC(=O)c1cccnc1N2C1CC1` [nevirapine], the “Effect on Amp-RT activity of group M reference isolates” value (RT of group M viruses) was “inhibit”, the “Sensitivity of group O reference isolate to nevirapine (Amp-RT)” value [1] was “resistant” and the “Amp-RT result of group O sera with nevirapine” value (RT in group O sera) was “Amp-RT positive in the presence and absence of nevirapine”. For the same compound, the “Amp-RT result of group M sera with nevirapine” value (RT in group M sera) was “positive only in the absence of nevirapine”.
